The target of experiment [1] is T1, Thioredoxin reductase 1, cytoplasmic (Rattus norvegicus, UniProt O89049).
T1 sequence (O89049 whole entry): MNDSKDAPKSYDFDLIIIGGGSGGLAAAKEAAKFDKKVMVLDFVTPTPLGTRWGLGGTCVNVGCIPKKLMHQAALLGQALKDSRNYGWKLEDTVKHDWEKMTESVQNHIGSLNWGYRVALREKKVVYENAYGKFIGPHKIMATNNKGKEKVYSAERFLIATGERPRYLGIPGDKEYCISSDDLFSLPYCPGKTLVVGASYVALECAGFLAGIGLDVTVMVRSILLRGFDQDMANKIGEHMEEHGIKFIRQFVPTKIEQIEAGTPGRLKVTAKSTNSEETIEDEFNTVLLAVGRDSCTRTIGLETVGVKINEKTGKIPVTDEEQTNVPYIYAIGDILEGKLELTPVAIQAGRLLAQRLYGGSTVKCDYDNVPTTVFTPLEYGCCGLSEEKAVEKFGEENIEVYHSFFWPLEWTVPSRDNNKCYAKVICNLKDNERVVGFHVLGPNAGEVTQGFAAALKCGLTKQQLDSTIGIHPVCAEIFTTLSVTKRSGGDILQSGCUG
Kind of experiment: Inhibition of rat liver cytosolic TrxR1 by spectrophotometry.

Experiment [2] addresses Thioredoxin reductase 2, mitochondrial (Rattus norvegicus, UniProt Q9Z0J5). Kind of experiment: Inhibition of rat liver mitochondrial TrxR2 by spectrophotometry.
Experiment [3] concerns the target T2, Thioredoxin reductase 1, cytoplasmic (Rattus norvegicus) (UniProt O89049).
T2 sequence (whole entry): T1 sequence (O89049 whole entry)
Kind of experiment: Inhibition of rat liver cytosolic TrxR1 at 20 uM after 2 mins by spectrophotometry.

In experiment [4] the target is Thioredoxin reductase 2, mitochondrial (Rattus norvegicus) (UniProt Q9Z0J5). Kind of experiment: Inhibition of rat liver mitochondrial TrxR2 at 100 uM by spectrophotometry in presence of 0.25 mM NADPH.
Thioredoxin reductase 2, mitochondrial (Rattus norvegicus), sequence (Q9Z0J5 whole entry): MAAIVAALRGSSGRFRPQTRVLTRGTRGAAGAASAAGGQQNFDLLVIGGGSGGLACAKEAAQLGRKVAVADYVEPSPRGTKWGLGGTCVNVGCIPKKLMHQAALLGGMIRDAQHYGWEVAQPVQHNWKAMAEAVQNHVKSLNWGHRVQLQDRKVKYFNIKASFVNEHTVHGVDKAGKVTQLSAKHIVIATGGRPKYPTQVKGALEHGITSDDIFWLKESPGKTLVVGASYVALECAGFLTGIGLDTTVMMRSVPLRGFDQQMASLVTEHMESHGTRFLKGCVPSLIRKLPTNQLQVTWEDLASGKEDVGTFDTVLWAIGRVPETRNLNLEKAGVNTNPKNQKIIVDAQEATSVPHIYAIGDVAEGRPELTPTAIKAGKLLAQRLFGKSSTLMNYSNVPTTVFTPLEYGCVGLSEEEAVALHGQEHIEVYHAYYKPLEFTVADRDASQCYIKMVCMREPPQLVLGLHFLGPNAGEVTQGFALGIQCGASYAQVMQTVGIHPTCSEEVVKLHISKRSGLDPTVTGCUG
Experiment [5] has as its target T2, Thioredoxin reductase 1, cytoplasmic (Rattus norvegicus). Kind of experiment: Inhibition of rat liver cytosolic TrxR1 at 20 uM after 1 hr by spectrophotometry.
Experiment [6] has the same target. Kind of experiment: Inhibition of rat liver cytosolic TrxR1 at 100 uM by spectrophotometry in presence of 0.25 mM NADPH.
The target of experiment [7] is T3, Glutathione reductase (Saccharomyces cerevisiae S288c, UniProt P41921).
T3 sequence (P41921 whole entry): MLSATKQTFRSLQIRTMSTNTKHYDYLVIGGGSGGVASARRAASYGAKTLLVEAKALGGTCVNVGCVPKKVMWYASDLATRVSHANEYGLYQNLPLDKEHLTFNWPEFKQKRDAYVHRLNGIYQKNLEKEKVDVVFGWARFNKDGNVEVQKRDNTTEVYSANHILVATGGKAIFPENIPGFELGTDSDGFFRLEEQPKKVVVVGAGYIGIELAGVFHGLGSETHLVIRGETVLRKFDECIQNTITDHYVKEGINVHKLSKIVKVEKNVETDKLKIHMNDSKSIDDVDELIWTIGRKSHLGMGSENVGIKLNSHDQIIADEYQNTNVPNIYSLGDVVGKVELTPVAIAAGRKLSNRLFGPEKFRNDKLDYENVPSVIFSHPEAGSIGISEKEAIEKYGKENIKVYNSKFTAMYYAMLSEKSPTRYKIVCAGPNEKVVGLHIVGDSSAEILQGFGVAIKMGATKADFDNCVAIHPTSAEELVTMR
Kind of experiment: Inhibition of yeast glutathione reductase by spectrophotometry.

Experiment [8] concerns the target T1, Thioredoxin reductase 1, cytoplasmic. Kind of experiment: Mixed-type inhibition of rat liver cytosolic TrxR1 by Lineweaver-Burk plot analysis.
Experiment [9] deals with T2, Thioredoxin reductase 1, cytoplasmic (Rattus norvegicus). Kind of experiment: Inhibition of rat liver cytosolic TrxR1 at 5 uM after 2 mins by spectrophotometry.
For experiment [10] the target is unchanged. Kind of experiment: Inhibition of rat liver cytosolic TrxR1 at 50 to 100 uM by spectrophotometry in presence of 0.025 mM NADPH.
The target of experiment [11] is T1, Thioredoxin reductase 1, cytoplasmic. Kind of experiment: Mixed-type inhibition of rat liver cytosolic TrxR1 at protein-substrate complex by Lineweaver-Burk plot analysis.

These results are taken from ChEMBL document CHEMBL1641523, “Hypericins and thioredoxin reductase: Biochemical and docking studies disclose the molecular basis for effective inhibition by naphthodianthrones” (Bioorg Med Chem, 2011).

Each structure is given as a SMILES string. Activity calls are given as the source filed them. No cut-off for these calls is given here. Where only a bound is given, the exact number is not on record here.

One may read the inhibition as how much of the control response was suppressed. Usually Ki stands for the equilibrium dissociation constant of an inhibitor or competing ligand from its target. Low values mean higher affinity, high ones lower affinity.

Thioredoxin reductase 2, mitochondrial, sequence (Q9Z0J5 whole entry): as the sequence (Q9Z0J5 whole entry) above

As for `O=C1c2cccc(O)c2C(=O)c2c(O)cc(CO)cc21` [ALOE-EMODIN], the IC50 in experiment [1] (read-out: IC50) is 180 µM; in experiment [2] (read-out: IC50), > 200 µM.
On to `O=C1c2c(O)cccc2C([C@@H]2O[C@H](CO)[C@@H](O)[C@H](O)[C@H]2O)c2cc(CO)cc(O)c21` (some centres not stated) [ALOIN], for which the IC50 in experiment [1] (read-out: IC50) and in experiment [2] (read-out: IC50) was > 200 µM each time.
As for `O=C1c2ccccc2Cc2ccccc21` [ANTHRONE], the IC50 in experiment [1] (read-out: IC50) and in [2] (read-out: IC50) was > 200 µM throughout.
With `Cc1cc(O)c2c(c1)C(=O)c1cccc(O)c1C2=O` [CHRYSOPHANOL], the IC50 in experiment [1] (read-out: IC50) came to 194 µM; in experiment [2] (read-out: IC50), 181 µM.
For the molecule `O=C1c2cccc(O)c2C(=O)c2c(O)cccc21` [DANTHRON], the IC50 in experiment [1] (read-out: IC50) and in experiment [2] (read-out: IC50) was > 200 µM in each case.
Consider `Cc1cc(O)c2c(c1)C(=O)c1cc(O[C@@H]3O[C@@H](C)[C@H](O)[C@@H](O)[C@H]3O)cc(O)c1C2=O` [FRANGULIN A], for which the IC50 in experiment [1] (read-out: IC50) and in experiment [2] (read-out: IC50) was > 200 µM each time.
As to `Cc1cc(O)c2c(=O)c3c(O)cc(O)c4c5c(O)cc(O)c6c(=O)c7c(O)cc(C)c8c1c2c(c34)c(c78)c65` [HYPERICIN], the inhibition came out at 20% in [3] and 60% in [5]. Also, the inhibition entry in [4] and in experiment [6] was “inactive” throughout. Besides, the IC50 in experiment [1] (read-out: IC50) is 198 µM; in experiment [1] (read-out: pIC50 (converted)) it was 158 µM; in experiment [2] (read-out: IC50) it was 49 µM; in experiment [2] (read-out: pIC50 (converted)) it was 43.2 µM; in [7], 3.67 µM.
As for `COc1cc(O)c2c(c1)C(=O)c1cc(C)cc(O)c1C2=O` [PHYSCION], the IC50 came to 185 µM in experiment [1] (read-out: IC50) and 132 µM in experiment [2] (read-out: IC50).
`Cc1cc(O)c2c(=O)c3c(O)cc(O)c4c5c(O)cc(O)c6c(=O)c7c(O)cc(CO)c8c1c2c(c34)c(c65)c78` [PSEUDOHYPERICIN]: the Ki in experiment [8] is 1.9 µM; in experiment [11] it was 8.1 µM. For the same molecule, the inhibition entry in experiment [4], in experiment [10] and in experiment [6] was “Active” each time. Besides, the inhibition in experiment [9] came out at 50%. Also, the IC50 in [1] (read-out: IC50) was 4.6 µM; in [1] (read-out: pIC50 (converted)), 4.41 µM; in experiment [2] (read-out: IC50) it was 7.9 µM; in experiment [2] (read-out: pIC50 (converted)), 7.45 µM; in experiment [7] it was 2.2 µM.
For `O=C1c2ccccc2C(=O)c2c(O)ccc(O)c21` [QUINIZARIN], the IC50 in [1] (read-out: IC50) and in experiment [2] (read-out: IC50) was > 200 µM each time.
For the molecule `O=C(O)c1cc(O)c2c(c1)C(=O)c1cccc(O)c1C2=O` [RHEIN], the figures for the IC50 in experiment [1] (read-out: IC50) and in experiment [2] (read-out: IC50) were 84 µM and 123 µM, respectively.
Consider `O=C(O)c1cc(O)c2c(c1)C([C@H]1c3cc(C(=O)O)cc(O)c3C(=O)c3c(O[C@@H]4O[C@H](CO)[C@@H](O)[C@H](O)[C@H]4O)cccc31)c1cccc(O[C@@H]3O[C@H](CO)[C@@H](O)[C@H](O)[C@H]3O)c1C2=O` (some centres not stated) [SENNOSIDE A,B], for which the IC50 in [1] (read-out: IC50) and in experiment [2] (read-out: IC50) was > 200 µM throughout.
Take `Cc1cc(O)c2c(c1)C(=O)c1c(c(O)cc(O)c1-c1c(O[C@@H]3O[C@H](CO)[C@@H](O)[C@H](O)[C@H]3O)cc(O)c3c1C(=O)c1cc(C)cc(O)c1C3=O)C2=O` [SKYRIN GLUCOSIDE]: the IC50 in experiment [1] (read-out: IC50) and in experiment [2] (read-out: IC50) was > 200 µM throughout.
